Where “and” joins values, the source holds several entries; their conditions need not be identical. Equal entries are not always repeated.
Conditions: Liquid, Falling or rolling sphere viscometry

CCCCCCC(=O)OCC(COCC(COC(=O)CCCCCC)(COC(=O)CCCCCC)COC(=O)CCCCCC)(COC(=O)CCCCCC)COC(=O)CCCCCC [dipentaerythritol hexaheptanoate]
Conditions	viscosity
283.15 K, 101.33 kPa	260.7 mPa·s and 259.1 mPa·s
288.15 K, 101.33 kPa	191.1 mPa·s and 190 mPa·s
293.15 K, 101.33 kPa	143.1 mPa·s and 142.2 mPa·s
298.15 K, 101.33 kPa	109.2 mPa·s and 108.5 mPa·s
303.15 K, 100 kPa	86.3 mPa·s
303.15 K, 101.33 kPa	84.89 mPa·s and 84.39 mPa·s
303.15 K, 1000 kPa	87.7 mPa·s
303.15 K, 5000 kPa	93.9 mPa·s
303.15 K, 10000 kPa	102 mPa·s
303.15 K, 20000 kPa	121 mPa·s
303.15 K, 30000 kPa	142 mPa·s
303.15 K, 40000 kPa	167 mPa·s
303.15 K, 50000 kPa	194 mPa·s
303.15 K, 60000 kPa	226 mPa·s
308.15 K, 101.33 kPa	67.04 mPa·s and 66.67 mPa·s
313.15 K, 100 kPa	55.8 mPa·s
313.15 K, 101.33 kPa	53.73 mPa·s and 53.45 mPa·s
313.15 K, 1000 kPa	56.6 mPa·s
313.15 K, 5000 kPa	60.3 mPa·s
313.15 K, 10000 kPa	65.3 mPa·s
313.15 K, 20000 kPa	76.3 mPa·s
313.15 K, 30000 kPa	88.9 mPa·s
313.15 K, 40000 kPa	103 mPa·s
313.15 K, 50000 kPa	119 mPa·s
313.15 K, 60000 kPa	138 mPa·s
318.15 K, 101.33 kPa	43.66 mPa·s and 43.45 mPa·s
323.15 K, 101.33 kPa	35.93 mPa·s and 35.77 mPa·s
328.15 K, 101.33 kPa	29.91 mPa·s and 29.79 mPa·s
333.15 K, 100 kPa	25.5 mPa·s
333.15 K, 101.33 kPa	25.18 mPa·s and 25.07 mPa·s
333.15 K, 1000 kPa	25.9 mPa·s
333.15 K, 5000 kPa	27.5 mPa·s
333.15 K, 10000 kPa	29.6 mPa·s
333.15 K, 20000 kPa	34.3 mPa·s
333.15 K, 30000 kPa	39.5 mPa·s
333.15 K, 40000 kPa	45.3 mPa·s
333.15 K, 50000 kPa	51.7 mPa·s
333.15 K, 60000 kPa	58.8 mPa·s
338.15 K, 101.33 kPa	21.39 mPa·s and 21.31 mPa·s
343.15 K, 101.33 kPa	18.32 mPa·s and 18.27 mPa·s
348.15 K, 101.33 kPa	15.82 mPa·s and 15.79 mPa·s
353.15 K, 100 kPa	13.8 mPa·s
353.15 K, 101.33 kPa	13.77 mPa·s and 13.75 mPa·s
353.15 K, 1000 kPa	14 mPa·s
353.15 K, 5000 kPa	14.8 mPa·s
353.15 K, 10000 kPa	15.9 mPa·s
353.15 K, 20000 kPa	18.2 mPa·s
353.15 K, 30000 kPa	20.8 mPa·s
353.15 K, 40000 kPa	23.6 mPa·s
353.15 K, 50000 kPa	26.6 mPa·s
353.15 K, 60000 kPa	30 mPa·s
358.15 K, 101.33 kPa	12.06 mPa·s
363.15 K, 101.33 kPa	10.64 mPa·s
368.15 K, 101.33 kPa	9.44 mPa·s and 9.45 mPa·s
373.15 K, 100 kPa	8.46 mPa·s
373.15 K, 101.33 kPa	8.42 mPa·s and 8.43 mPa·s
373.15 K, 1000 kPa	8.56 mPa·s
373.15 K, 5000 kPa	9.04 mPa·s
373.15 K, 10000 kPa	9.66 mPa·s
373.15 K, 20000 kPa	11 mPa·s
373.15 K, 30000 kPa	12.4 mPa·s
373.15 K, 40000 kPa	14 mPa·s
373.15 K, 50000 kPa	15.7 mPa·s
373.15 K, 60000 kPa	17.5 mPa·s

CCCCC(=O)OCC(COCC(COC(=O)CCCC)(COC(=O)CCCC)COC(=O)CCCC)(COC(=O)CCCC)COC(=O)CCCC
Conditions	viscosity
283.15 K, 101.33 kPa	259 mPa·s and 257.9 mPa·s
288.15 K, 101.33 kPa	189.2 mPa·s and 188.5 mPa·s
293.15 K, 101.33 kPa	141.2 mPa·s and 140.8 mPa·s
298.15 K, 101.33 kPa	107.6 mPa·s and 107.3 mPa·s
303.15 K, 100 kPa	85.9 mPa·s
303.15 K, 101.33 kPa	83.52 mPa·s and 83.31 mPa·s
303.15 K, 1000 kPa	87.2 mPa·s
303.15 K, 5000 kPa	93.2 mPa·s
303.15 K, 10000 kPa	101 mPa·s
303.15 K, 20000 kPa	119 mPa·s
303.15 K, 30000 kPa	139 mPa·s
303.15 K, 40000 kPa	163 mPa·s
303.15 K, 50000 kPa	189 mPa·s
303.15 K, 60000 kPa	219 mPa·s
308.15 K, 101.33 kPa	65.88 mPa·s and 65.72 mPa·s
313.15 K, 100 kPa	54.3 mPa·s
313.15 K, 101.33 kPa	52.73 mPa·s and 52.64 mPa·s
313.15 K, 1000 kPa	55.1 mPa·s
313.15 K, 5000 kPa	58.8 mPa·s
313.15 K, 10000 kPa	63.6 mPa·s
313.15 K, 20000 kPa	74.4 mPa·s
313.15 K, 30000 kPa	86.6 mPa·s
313.15 K, 40000 kPa	100 mPa·s
313.15 K, 50000 kPa	116 mPa·s
313.15 K, 60000 kPa	133 mPa·s
318.15 K, 101.33 kPa	42.8 mPa·s and 42.75 mPa·s
323.15 K, 101.33 kPa	35.18 mPa·s and 35.15 mPa·s
328.15 K, 101.33 kPa	29.24 mPa·s and 29.25 mPa·s
333.15 K, 100 kPa	25 mPa·s
333.15 K, 101.33 kPa	24.55 mPa·s and 24.59 mPa·s
333.15 K, 1000 kPa	25.4 mPa·s
333.15 K, 5000 kPa	26.9 mPa·s
333.15 K, 10000 kPa	29 mPa·s
333.15 K, 20000 kPa	33.6 mPa·s
333.15 K, 30000 kPa	38.6 mPa·s
333.15 K, 40000 kPa	44.2 mPa·s
333.15 K, 50000 kPa	50.3 mPa·s
333.15 K, 60000 kPa	56.9 mPa·s
338.15 K, 101.33 kPa	20.81 mPa·s and 20.88 mPa·s
343.15 K, 101.33 kPa	17.79 mPa·s and 17.88 mPa·s
348.15 K, 101.33 kPa	15.34 mPa·s and 15.44 mPa·s
353.15 K, 100 kPa	13.5 mPa·s
353.15 K, 101.33 kPa	13.33 mPa·s and 13.42 mPa·s
353.15 K, 1000 kPa	13.6 mPa·s
353.15 K, 5000 kPa	14.4 mPa·s
353.15 K, 10000 kPa	15.45 mPa·s
353.15 K, 20000 kPa	17.7 mPa·s
353.15 K, 30000 kPa	20.1 mPa·s
353.15 K, 40000 kPa	22.8 mPa·s
353.15 K, 50000 kPa	25.7 mPa·s
353.15 K, 60000 kPa	28.8 mPa·s
358.15 K, 101.33 kPa	11.66 mPa·s and 11.76 mPa·s
363.15 K, 101.33 kPa	10.26 mPa·s and 10.36 mPa·s
368.15 K, 101.33 kPa	9.08 mPa·s and 9.18 mPa·s
373.15 K, 100 kPa	8.22 mPa·s
373.15 K, 101.33 kPa	8.09 mPa·s and 8.18 mPa·s
373.15 K, 1000 kPa	8.32 mPa·s
373.15 K, 5000 kPa	8.78 mPa·s
373.15 K, 10000 kPa	9.38 mPa·s
373.15 K, 20000 kPa	10.6 mPa·s
373.15 K, 30000 kPa	12 mPa·s
373.15 K, 40000 kPa	13.5 mPa·s
373.15 K, 50000 kPa	15.2 mPa·s
373.15 K, 60000 kPa	16.9 mPa·s
